Publication PMC11748363, “Antimicrobial and Antiproliferative Properties of 2‐Phenyl‐N‐(Pyridin‐2‐yl)acetamides” (Chemical Biology & Drug Design, 2025)
Values after ≈ are worked out from the molar mass of the structure shown. Like-named read-outs stand apart in the source and are kept apart here.

Tests used:
[1] = test system: Staphylococcus aureus subsp. aureus CCM 4750, ATCC 43300 (MRSA); assay: Antibacterial microdilution broth MIC, MRSA; assay type: cell-based; conditions: Staphylococcus aureus
PC‐3 cell line = assay: Cytotoxicity CellTiter 96, PC-3; assay type: cell-based; conditions: Homo sapiens, 24 h incubation
Description: (§1) The cytotoxicity of final compounds was determined in human hepatocellular carcinoma cell line HepG2. Additional testing of selected compounds was performed on human epithelial kidney cancer cell line A498, human prostate cancer cell line PC‐3, human glioblastoma cell line U‐87 MG, and normal human proximal tubule cell line HK‐2.
(§2) Cytotoxicity determination […]
(§3) For subculturing, the cells were harvested after trypsin/EDTA (Sigma–Aldrich) treatment at 37 °C. To evaluate cytotoxicity, the cells treated with the tested substances were used as experimental groups whereas untreated HepG2 cells served as controls. The cells were seeded in density 10,000 cells per well in a 96 well plate. The next day the cells were treated with each of the tested substances dissolved in DMSO. The tested substances were […]
(§4) in triplicates according to their solubility. Simultaneously, the controls representing 100% cell viability, 0% cell viability (the cells treated with 10% DMSO), no cell control and vehiculum controls were also […]
the reagent from the kit CellTiter 96 AQueous One Solution Cell Proliferation Assay (CellTiter 96; PROMEGA, Fitchburg, USA) was added. After 2h incubation at 37 °C, absorbance of samples was recorded at 490 nm (TECAN, Infinita M200, Austria). A standard toxicological parameter IC50 was calculated by nonlinear regression from a semilogarithmic plot of incubation concentration versus percentage of absorbance relative to untre ated controls using GraphPad Prism 8 software. […]
(§5) Kaighn's Modification of Ham's F-12 Medium and human glioblastoma astrocytoma U-87 MG cell line, […]
Glucose medium. All cultures were supplemented with 10% fetal bovine serum, 1% non-essential amino acids (A498, HK-2 and U-87 MG), 1% sodium pyruvate (A498, HK-2 and U-87 MG) and 2 mM L-glutamine. All cell culture consumables were purchased from Merck (Darmstadt, Germany). The cells

[2] = test system: Enterococcus faecalis CCM 4224, ATCC 29212; assay: Antibacterial microdilution broth MIC, EF; assay type: cell-based
A498 cell line = assay: Cytotoxicity CellTiter 96, A498; assay type: cell-based; conditions: Homo sapiens, 24 h incubation
Description: as §1, §2, §3, §4
the reagent from the kit CellTiter 96 AQueous One Solution Cell Proliferation Assay (CellTiter 96; PROMEGA, Fitchburg, USA) was added. After 2h incubation at 37 °C, absorbance of samples was recorded at 490 nm (TECAN, Infinita M200, Austria). A standard toxicological parameter IC50 was calculated by nonlinear regression from a semilogarithmic plot of incubation concentration versus percentage of absorbance relative to untre ated controls using GraphPad Prism 8 software.
Human epithelial kidney carcinoma A498 cell line, obtained from American Type Culture Collection (ATCC, Manassas, VA, USA, catalogue No.: HTB -44), was cultured in RPMI medium, Human normal kidney proximal tubule HK-2 cell line obtained from ATCC (ATCC, Manassas, VA, USA, catalogue No.:
as §5
Glucose medium. All cultures were supplemented with 10% fetal bovine serum, 1% non-essential amino acids (A498, HK-2 and U-87 MG), 1% sodium pyruvate (A498, HK-2 and U-87 MG) and 2 mM L-glutamine. […]

[3] = test system: Candida parapsilosis CCM 8260, ATCC 22019; assay: Antifungal microdilution broth MIC, CP; conditions: Lodderomyces parapsilosis
[4] = test system: Candida tropicalis CCM 8264, ATCC 750; assay: Antifungal microdilution broth MIC, CT
[5] = test system: Aspergillus flavus CCM 8363; assay: Antifungal microdilution broth MIC, AFla
[6] = test system: Aspergillus fumigatus ATCC 204305; assay: Antifungal microdilution broth MIC, AF
[7] = test system: Acinetobacter baumannii DSM 30007, ATCC 19606; assay: Antibacterial microdilution broth MIC, ACI; assay type: cell-based
[8] = test system: Candida albicans CCM 8320, ATCC 24433; assay: Antifungal microdilution broth MIC, CA
[9] = buffer, 3 h, 1 µM, pH 7.4
Description: HPLC-MS stability determination in PBS (pH 7.4)
Briefly, compounds were dissolved in DMSO to produce stock sample solutions.
NaOH. The concentration of tested compounds was set at 1 µM.
After that, 150 µL of supernatant was
transferred to the vial and analyzed by LC-MS.
3000 RS coupled with a Q Exactive Plus orbitrap mass spectrometer to obtain the areas (Thermo Fisher
Scientific, Bremen, Germany). Reverse-phase C18 column Kinetex EVO (Phenomenex, Torrance, CA,
USA) was used as a stationary phase, and purified water with 0.1% formic acid (mobile phase A) and
LC-MS grade acetonitrile with 0.1% formic acid (mobile phase B) were used as the mobile phases.
Gradient elution was used to determine purities and mass spectra. The method started with 5% B for
0.3 min, then the gradient switched to 100% B in the third min, remained at 100% B for 0.7 min and
then went back to 5% B with equilibration for 3.5 min. The total run time of the method was 7.5 min.
The column temperature was kept constant at 27 °C, the flow of the mobile phase was 0.5 mL/min,
and the injection volume was 1 µL.

[10] = CCM8363, 24 h, read-out: MIC AFla 24h
[11] = CCM8363, 48 h, read-out: MIC AFla 48h
[12] = ATCC204305, 24 h, read-out: MIC AF 24h
[13] = ATCC204305, 48 h, read-out: MIC AF 48h

| Compound | MIC ([1]; 24 h, read-out: MIC MRSA 24h) [µM] | MIC ([1]; 48 h, read-out: MIC MRSA 48h) [µM] | IC50 (PC‐3 cell line) [µM] | MIC ([2]; 24 h, read-out: MIC EF 24h) [µM] | MIC ([2]; 48 h, read-out: MIC EF 48h) [µM] | IC50 (A498 cell line) [µM] | MIC ([3]; 24 h, read-out: MIC CP 24h) [µM] | MIC ([3]; 48 h, read-out: MIC CP 48h) [µM] | MIC ([4]; 24 h, read-out: MIC CT 24h) [µM] | MIC ([4]; 48 h, read-out: MIC CT 48h) [µM] | MIC [5, 10] [µM] | MIC [5, 11] [µM] | MIC [6, 12] [µM] | MIC [6, 13] [µM] | MIC ([7]; 24 h, read-out: MIC ACI 24h) [µM] | MIC ([7]; 48 h, read-out: MIC ACI 48h) [µM] | MIC ([8]; 24 h, read-out: MIC CA 24h) [µM] | MIC ([8]; 48 h, read-out: MIC CA 48h) [µM] | concentration remaining (hydrolytic stability) [9] [%] |
| --- | --- | --- | --- | --- | --- | --- | --- | --- | --- | --- | --- | --- | --- | --- | --- | --- | --- | --- | --- |
| O=C(Cc1cccc(Cl)c1)Nc1ccc(Cl)cn1 [Compound 17, 2-(3-chlorophenyl)-N-(5-chloropyridin-2-yl)acetamide] | > 500 | > 500 | 213 | > 500 | > 500 | 135 | > 500 | > 500 | > 500 | > 500 | > 500 | > 500 | > 500 | > 500 | > 500 | > 500 | > 500 | > 500 |  |
| COc1ccc(CC(=O)Nc2cccc(Cl)n2)cc1 [Compound 12, 2-(4-methoxyphenyl)-N-(6-chloropyridin-2-yl)acetamide] | 500 (≈ 138 µg/mL) | > 500 |  | 500 (≈ 138 µg/mL) | 500 (≈ 138 µg/mL) |  | > 500 | > 500 | > 500 | > 500 | > 500 | > 500 | > 500 | > 500 | > 500 | > 500 | > 500 | > 500 | ≥ 90 |
| O=C(Cc1ccccc1C(F)(F)F)Nc1cccc(Cl)n1 [Compound 24] | > 500 | > 500 | > 100 | > 500 | > 500 | 278 | > 500 | > 500 | > 500 | > 500 | > 500 | > 500 | > 500 | > 500 | > 500 | > 500 | > 500 | > 500 | ≥ 90 |
| O=C(Cc1cccc(C(F)(F)F)c1)Nc1ccc(Cl)cn1 [Compound 26] | > 500 | > 500 | 73.1 | > 500 | > 500 | 128 | > 500 | > 500 | > 500 | > 500 | > 500 | > 500 | > 500 | > 500 | > 500 | > 500 | > 500 | > 500 |  |
